Results from patent US20240016860A1, “BACILLUS COAGULANS FOR IMPROVING CONSTIPATION AND APPLICATION THEREOF” (Thankcome Biological Science and Technology (Suzhou) Co., …, priority 2022, published 2024).

Tests used:
Format in all cases: in vivo, Kunming mice
endothelin-1 (ET-1) = assay: Serum gastrointestinal hormone ELISA: ET-1; conditions: Bis group: bisacodyl 100 mg/kg per day
Method: (§1) After a week of adaptive culture, 40 mice are randomly divided into 5 groups, with 8 mice in each group, namely the group of normal control (NC), group of model (GM), BC69 low-dose group (BC-L), BC69 high-dose group (BC-H) and bisacodyl drug treatment group (Bis). During the experiment, saline gavage of 0.25 mL is administered daily to NC and GM mice; from day 1 to day 4, all mice except NC mice are additionally gavaged with loperamide hydrochloride suspension (1 mg/mL) 0.25 mL twice daily (at 9:00 a.m. and 2:00 p.m. respectively) to induce a functional constipation model of mice; after gavage on day 4, all mice are fasted from food but not water for 16 h; from day 5 to day 11, […] are gavaged with Bacillus coagulans BC suspension 0.25 mL every day, where the concentrations are 1.0×10^8 colony-forming units per milliliter (CFU/mL) and 4.0×10^9 CFU/mL respectively; mice of group Bis are gavaged with bisacodyl aqueous solution at 100 milligrams per kilogram (mg/kg) per day; after the completion of gavage on day 11, all groups of mice are fasted from food but not water for 16 h. […]
(§2) The contents of endothelin (ET), gastrin (Gas), motilin (MTL), substance P (SP), somatostatin (SS) and vasoactive intestinal peptide (VIP) in serum are determined according to the instructions of the enzyme-linked immuno sorbent assay (ELISA) kit.

gastrin (Gas) = assay: Serum gastrointestinal hormone ELISA: Gas; conditions: Bis group: bisacodyl 100 mg/kg per day
Method: as §1, §2

motilin (MTL) = assay: Serum gastrointestinal hormone ELISA: MTL; conditions: Bis group: bisacodyl 100 mg/kg per day
Method: as §1, §2

substance P (SP) = assay: Serum gastrointestinal hormone ELISA: SP; conditions: Bis group: bisacodyl 100 mg/kg per day
Method: as §1, §2

somatostatin (SS) = assay: Serum gastrointestinal hormone ELISA: SS; conditions: Bis group: bisacodyl 100 mg/kg per day
Method: as §1, §2

[1] = test system: vasoactive intestinal peptide (VIP); assay: Serum gastrointestinal hormone ELISA: VIP; conditions: Bis group: bisacodyl 100 mg/kg per day
Method: as §1, §2

COX-2 mRNA = assay: RT-qPCR mRNA expression in small intestine: COX-2; conditions: 2^−ΔΔCt, actin reference, Bis group: bisacodyl 100 mg/kg per day
Method: (§3) After a week of adaptive culture, 40 mice are randomly divided into 5 groups, with 8 mice in each group, namely the group of normal control (NC), group of model (GM), BC69 low-dose group (BC-L), BC69 high-dose group (BC-H) and bisacodyl drug treatment group (Bis). […]
(§4) Messenger ribonucleic acid (mRNA) expressions of COX-2, c-kit, NFκB, iNOS, eNOS, nNOS and SCF are detected by RT-qPCR, and total RNA is extracted and complementary deoxyribonucleic acid (cDNA) reverse transcription is carried out according to the instructions of RNA extraction kit and cDNA reverse transcription kit; then a microspectrophotometer is used to identify the purity of the RNA at 260/280 nanometers (nm). Actin (actin) is used as a standardized internal reference for RT-qPCR analysis, and final RT-qPCR product expression is determined using the 2^−ΔΔCt method.

c-kit mRNA = assay: RT-qPCR mRNA expression in small intestine: c-kit; conditions: 2^−ΔΔCt, actin reference, Bis group: bisacodyl 100 mg/kg per day
Method: as §3, §4

NFκB mRNA = assay: RT-qPCR mRNA expression in small intestine: NFκB; conditions: 2^−ΔΔCt, actin reference, Bis group: bisacodyl 100 mg/kg per day
Method: as §3, §4

iNOS mRNA = assay: RT-qPCR mRNA expression in small intestine: iNOS; conditions: 2^−ΔΔCt, actin reference, Bis group: bisacodyl 100 mg/kg per day
Method: as §3, §4

eNOS mRNA = assay: RT-qPCR mRNA expression in small intestine: eNOS; conditions: 2^−ΔΔCt, actin reference, Bis group: bisacodyl 100 mg/kg per day
Method: as §3, §4

nNOS mRNA = assay: RT-qPCR mRNA expression in small intestine: nNOS; conditions: 2^−ΔΔCt, actin reference, Bis group: bisacodyl 100 mg/kg per day
Method: as §3, §4

SCF mRNA = assay: RT-qPCR mRNA expression in small intestine: SCF; conditions: 2^−ΔΔCt, actin reference, Bis group: bisacodyl 100 mg/kg per day
Method: as §3, §4

Structure (SMILES): CC(=O)Oc1ccc(C(c2ccc(OC(C)=O)cc2)c2ccccn2)cc1 [Bis, bisacodyl]
- ET-1 (endothelin-1 (ET-1)): 21.44 ± 1.28 pg/mL
- Gas (gastrin (Gas)): 10.09 ± 0.69 pg/mL
- MTL (motilin (MTL)): 57.89 ± 2.65 pg/mL
- SP (substance P (SP)): 51.60 ± 3.48 pg/mL
- SS (somatostatin (SS)): 28.09 ± 1.89 pg/mL
- VIP [1]: 36.13 ± 2.37 pg/mL
- mRNA expression levels COX-2 (COX-2 mRNA): 0.43 ± 0.05
- mRNA expression levels c-kit (c-kit mRNA): 0.08 ± 0.01
- mRNA expression levels NFκB (NFκB mRNA): 2.21 ± 0.84
- mRNA expression levels iNos (iNOS mRNA): 0.04 ± 0.00
- mRNA expression levels eNos (eNOS mRNA): 0.03 ± 0.00
- mRNA expression levels nNos (nNOS mRNA): 0.04 ± 0.00
- mRNA expression levels SCF (SCF mRNA): 3.66 ± 0.62
